How the values were obtained:
[1] = target: HasA (Pseudomonas aeruginosa, UniProt G3XD33); assay: Kd determination by fluorescence quenching of apo-HasAp; details: read-out: HasA Kd; apo-HasAp 1 μM, 20 mM sodium phosphate pH 7.4, 25 °C, one-site binding fit
Experimental: Wild-type, full-length HasAp was prepared from freshly transformed Escherichia coli BL21(DE3) competent cells as previously described in 4 L of M9 media. Cell pellets were resuspended and lysed with an LM-20 microfluidizer at 18,000 psi. Lysate was clarified by centrifugation and applied to a Q-Sepharose column. HasAp was eluted over a gradient from 20 to 600 mM NaCl in 20 mM Tris-HCl (pH 7.5), and desired fractions determined by SDS-PAGE were pooled. Apo-HasAp was further purified on a Butyl Sepharose Fast Flow column equilibrated with 50 mM sodium phosphate buffer with 0.7 M ammonium sulfate (pH 7.0). Holo-HasAp and other proteins eluted within 2–3 bed volumes of 50 mM sodium phosphate containing 0.5 M ammonium sulfate. Apo-HasAp was then eluted with a linear gradient of sodium phosphate buffer (50–20 mM) containing ammonium sulfate (0.5–0 M). Fractions were analyzed again by SDS-PAGE, and the apo-HasAp was pooled, concentrated (Amicon stirred cell with Ultracel 10 kDa filter), and exchanged into 20 mM sodium phosphate buffer.
Binding affinities were determined using a BioTek Synergy H1 microplate reader in a black 96-well plate. Compounds were solvated in H2O in serial dilutions (100–0.39 μM). One micromolar solution of apo-HasAp 20 mM sodium phosphate buffer (pH 7.4, 25 °C) was titrated into the ligand of interest. Emission spectra were recorded (300–500 nm) after excitation at 280 nm. The decrease in maximum emission was plotted against the ligand concentration (accounting for dilution) and fit to one-site binding using GraphPad Prism v10.

[2] = Experimental LogP by reverse-phase HPLC method; type: physicochemical; details: extrapolated log kw
Source text: LogP was experimentally determined using previously published reverse-phase high-performance liquid chromatography method, and this workflow was adapted using instrumentation described in the previous LC-MS/MS analysis section ([Coutinho et al, 2023]). Briefly, analogs were eluted using isocratic flow with an increasing percentage of organic solvent from 55% to 90% in increments of 5%. The change in the log of the retention factor, log k, was plotted against the fraction of organic solvent. This allowed for extrapolation to the y-intercept, which is when the fraction of organic in the system is zero, or log kw. The same workflow was applied to known compounds with a published logP value to establish a relationship between logP and log kw. This ratio was used to calculate the experimental logP from the log kw of the test compounds. The in silico prediction of logP values was obtained using an online calculator by Molinspiration Cheminformatics (molinspiration.com).

[3] = RBC/PL partitioning equilibrium in whole blood; details: for ICP-MS calculated KRBC/PL / LC-MS/MS calculated KRBC/PL: sodium heparin whole blood, 6 selectivity lots; for KRBC/PL: K2EDTA whole blood
Experimental: The mixtures were digested at 80 °C for 4 hours and further diluted to a concentration of 6% nitric acid. Gallium (Ga^71) in whole blood, PL, and RBC samples were quantified using an Agilent 7700x ICP-MS instrument (Agilent Technologies). Metal levels were detected using an Octopole Reaction System in He mode. Other ICP-MS parameters include an radio frequency power of 1500 W, on octupole radio frequency of 190 V, an octapole bias of –18 V, a helium gas flow of 4.3 mL/min, and an argon flow of 0.99 L/min. Samples were loaded through a 7700X peristaltic (with a speed of 0.1 rps) and a MicroMist nebulizer. A standard calibration curve was used to derive metal concentrations. The calibration standards from 0–250 ppb were prepared in 6% nitric acid using atomic absorption standards (Sigma). Data analysis and extraction were performed using Agilent’s MassHunter software version 5.1, specifically version D.01.01.
All LC-MS/MS grade solvents were purchased from ThermoFisher. Ammonium bicarbonate was purchased from Sigma Aldrich. Analysis was performed on a Waters I-Class ultra-performance liquid chromatography system connected with a Waters Xevo TQ-XS mass spectrometer. Ten millimolar ammonium bicarbonate, pH 9.4 was used for mobile phase A, and 100% methanol was used for mobile phase B. The column flow rate was set at 0.400 mL/min. Chromatographic separation was performed with a BEH C18 (2.1 × 50 mm, 1.7 μm) column (Waters). […] The total run time was 4 minutes. The column temperature was set to 60 °C, and the autosampler temperature was set to 15 °C. Washing parameters were 800 μL of weak needle wash (acetonitrile [ACN]:Water/50:50) and 1000 μL of strong needle wash (methanol:ACN:2-propanol:formic acid/30:30:40:0.5) after every injection. Transitions used to monitor all drugs in the study are shown in Supplemental Table 1.
Whole blood (either potassium EDTA [K2EDTA] or sodium heparin) was preincubated at 37 °C for 30 minutes before spiking with the analyte. GaSal-5 was made at a stock concentration of 100 μg/mL in water and then spiked at a high concentration (1 μg/mL) and low concentration (100 ng/mL) to determine whether equilibrium was concentration dependent. Samples were then aliquoted and stored in a water bath at 37 °C for 1, 2, 3, 4, and 8 hours or harvested immediately. PL was harvested from samples by centrifuging at 3000 rpm at 4 °C for 10 minutes. PL was transferred to a new tube and considered the PL fraction, whereas the rest of the matrix was considered the RBC fraction. Samples were then either analyzed by LC-MS/MS or ICP-MS. […] For selectivity lot analysis, whole blood from 3 male and 3 female donors were incubated for 2 hours and then analyzed with LC-MS/MS and ICP-MS at a single concentration of 1 μg/mL. Data are presented as average ± SEM, n = 3 per sample, per concentration. Significance was determined by using a paired t test for ICP-MS and LC-MS/MS data (the same sample, different method) or a 2-tailed Student’s t test for different anticoagulants.

[4] = 0.1 μg/mL, pooled K2EDTA whole blood, 2 hours, LC-MS/MS (ICP-MS for Ga^3+)
[5] = 0.1 μg/mL, pooled sodium heparin whole blood, 2 hours, LC-MS/MS (ICP-MS for Ga^3+)
[6] = 1 μg/mL, pooled K2EDTA whole blood, 2 hours, LC-MS/MS (ICP-MS for Ga^3+)
[7] = 1 μg/mL, pooled sodium heparin whole blood, 2 hours, LC-MS/MS (ICP-MS for Ga^3+)
[8] = 1 μg/mL, selectivity lots n = 6, LC-MS/MS
[9] = 1 μg/mL, selectivity lots n = 6, LC-MS/MS (also in Table 4)

HasA, sequence (G3XD33 entry or part of it): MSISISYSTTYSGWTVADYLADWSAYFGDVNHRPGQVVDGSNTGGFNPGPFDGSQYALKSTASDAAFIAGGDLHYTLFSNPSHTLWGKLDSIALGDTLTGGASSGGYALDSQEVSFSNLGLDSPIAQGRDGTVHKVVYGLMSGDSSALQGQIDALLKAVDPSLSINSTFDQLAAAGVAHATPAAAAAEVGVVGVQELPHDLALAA

SMILES | Kd [1] [nM] | logP [2] | K2EDTA KRBC/PL [3, 4] | Heparin KRBC/PL [3, 5] | K2EDTA KRBC/PL [3, 6] | Heparin KRBC/PL [3, 7] | K2EDTA KRBC/PL [3, 8] | Heparin KRBC/PL [3, 9] | ICP-MS calculated KRBC/PL ([3]; 1 μg/mL, 2 hours) | LC-MS/MS calculated KRBC/PL ([3]; 1 μg/mL, 2 hours) | KRBC/PL ([3]; 2 hours, ICP-MS, HQC (1 μg/mL)) | KRBC/PL ([3]; 2 hours, ICP-MS, LQC (100 ng/mL)) | KRBC/PL ([3]; 2 hours, LC-MS/MS, HQC (1 μg/mL)) | KRBC/PL ([3]; 2 hours, LC-MS/MS, LQC (100 ng/mL))
Oc1ccccc1/C=N/c1ccccc1/N=C/c1ccccc1O.[Ga+3] [GaSal, gallium salophen] | 800 ± 100 | 2.58 | 0.22 ± 0.02 | 0.61 ± 0.42 | 0.26 ± 0.03 | 0.57 ± 0.19 | 0.58 ± 0.02 | 0.45 ± 0.03 | 0.89 ± 0.04 | 0.45 ± 0.03 |  |  |  | 
Oc1cc(OCCN2CCOCC2)ccc1C=Nc1ccccc1N=Cc1ccc(OCCN2CCOCC2)cc1O.[Ga+3] [GaSal-3] | 1500 ± 300 | 3.87 | 0.28 ± 0.08 | 1.08 ± 0.28 | 0.28 ± 0.04 | 1.03 ± 0.24 |  |  |  |  |  |  |  | 
O=C(O)CCOc1ccc(C=Nc2ccccc2N=Cc2ccc(OCCC(=O)O)cc2O)c(O)c1.[Ga+3] [GaSal-4] | 1100 ± 100 | 3.33 | 2288 ± 94 | 3422 ± 435 | 9220 ± 484 | 8098 ± 1102 |  |  |  |  |  |  |  | 
COCCOCCOc1ccc(C=Nc2ccccc2N=Cc2ccc(OCCOCCOC)cc2O)c(O)c1.[Ga+3] [GaSal-5] | 2500 ± 1200 | 3.95 | 0.63 ± 0.36 | 1.91 ± 0.57 |  | 1.34 ± 0.17 | 0.16 ± 0.03 | 0.56 ± 0.03 | 0.36 ± 0.03 | 0.56 ± 0.03 | 0.572 ± 0.008 | 0.632 ± 0.080 | 0.043 ± 0.017 | 0.070 ± 0.007
COCCOc1ccc(/C=N/c2ccccc2/N=C/c2ccc(OCCOC)cc2O)c(O)c1.[Ga+3] [GaSal-13] | 960 ± 140 | 3.65 | 0.55 ± 0.35 | 0.47 ± 0.22 | 0.08 ± 0.04 | 0.59 ± 0.18 |  |  | 0.48 ± 0.04 | 0.42 ± 0.03 |  |  |  | 
COCCOc1ccc(/C=N/c2ccccc2N=C(C)c2ccccc2O)c(O)c1.[Ga+3] [GaSal-14] | 2840 ± 120 | 3.31 | 0.69 ± 0.10 | 0.55 ± 0.07 | 1.65 ± 0.18 | 1.86 ± 0.36 | 0.08 ± 0.01 | 0.33 ± 0.04 | 0.34 ± 0.02 | 0.33 ± 0.04 |  |  |  | 
